Values joined by “and” are separate entries in the source; they are usually repeats but may differ in a detail not shown here. Identical values can stand only once. Like-named read-outs stand apart in the source and are kept apart here.

Test [1] concerns the target T1, SARS-CoV-2 M^pro (Severe acute respiratory syndrome coronavirus 2, UniProt P0DTD1). Description: biochemical. As to conditions: for inhibition at 10 µM: read-out: inhibition rate of SARS-CoV-2 M^pro activity, 10 μM.
Test [2] has as its system pseudovirus expressing the SARS-CoV-2 spike protein. The note with it: cited from earlier work.
Test [3] has as its target T1, SARS-CoV-2 M^pro. Set-up: method as in PMID 33290767. As to conditions: in vitro, cited from earlier work.

As for “11-nor-Δ^8-tetrahydrocannabinol-9-Carboxylic acid [11-OH-THC]”, the “inhibition rate of SARS-CoV-2 M^pro activity” value (shortened to “inhibition rate”) in test [1] (10 µM) came out at 56.0%. In the case of `CCCCCc1cc2c(c(O)c1C(=O)O)C=CC(C)(CCC=C(C)C)O2` (centres unmarked) [CBCA, cannabichromenic acid], the inhibition at 10 µM in test [1] is less than 10%. With `CCCCc1cc(O)c2c(c1)OC(C)(C)[C@@H]1CCC(C)=C[C@@H]21` [THCB, Δ^9-tetrahydrocannabibutol], the “inhibition rate” value in test [1] (10 μM) is greater than 70%. Further, in test [1], half-maximal inhibition (IC50) required 3.62 µM and the inhibition at 10 µM was 81%. As to `CCCc1cc2c(c(O)c1C(=O)O)C=CC(C)(CCC=C(C)C)O2` (centres unmarked) [CBCVA, cannabichromevarinic acid], in test [1], the inhibition at 10 µM was less than 10%. As to `CCCCCc1cc(O)c(C/C=C(\C)CCC=C(C)C)c(O)c1C(=O)O` [CBGA, cannabigerolic acid], the “effect on pseudovirus infection (in words)” value in test [2] was “block the infection”. In addition, the “inhibition rate” value in test [1] (10 μM) was greater than 70%. Moreover, the inhibition at 12.5 µM in test [1] (12.5 μM) was 6%. Further, in test [1] (25 μM), the inhibition at 25 µM is 8%. Further, in test [1], the inhibition at 50 µM is 18.5%; the inhibition at 250 µM turned out to be 72.9%; the concentration for half-maximal inhibition (IC50) was 14.4 µM and 20.7 µM; the inhibition at 10 µM amounted to 72.9%. Further, the inhibition at 100 µM in test [1] (100 μM) was determined as 18.2%. `CCCCCc1cc(O)c2c(c1)OC(C)(C)c1ccc(C)cc1-2` [CBN, cannabinol]: the IC50 in test [3] is 7.91 µM. For the same compound, in test [1], the inhibition at 10 µM came to 28.7%. Take `C=C(C)[C@@H]1CCC(C)=C[C@H]1c1c(O)cc(CCCCC)c(C(=O)OC)c1O` [CBDAME, cannabidiolic acid methyl ester]: the inhibition at 10 µM in test [1] was found to be 13.7%. Same read-out and setting: the value for `C=C(C)c1ccc(C)cc1-c1c(O)cc(CCCCC)cc1O` [CBND, cannabinodiol] was less than 10%; that for `C=C(C)[C@@H]1CCC(C)=C[C@H]1c1c(O)cc(CCCCCCC)cc1O` [CBDP, cannabidiphorol] was 6.55%. `C=C(C)[C@@H]1CCC(C)=C[C@H]1c1c(O)cc(CCC)cc1O` [CBDV, cannabidivarin]: the inhibition at 10 µM in test [1] came out at 6.87%.

For `CCCCCc1cc(O)c2c(c1)OC1(C)CCC3C1C2C3(C)C` (centres unmarked) [CBL, cannabicyclol], the inhibition at 10 µM in test [1] was 31.1%. Take `CCCCCc1cc(O)c2c(c1)OC(C)(C)[C@@H]1CCC(C)=C[C@@H]21` [Δ^9-THC, Δ^9-tetrahydrocannabinol, reference compound]: in test [3] (read-out: IC50), the half-inhibitory concentration (IC50) was 10.2 µM. As for `C=C(C)[C@@H]1CCC(C)=C[C@H]1c1c(O)cc(CCCC)cc1O` [CBDB, cannabidibutol], the inhibition at 10 µM in test [1] stood at 19.4%. Regarding `O=C[C@H](C[C@@H]1CCNC1=O)NC(=O)[C@H](Cc1cccc(F)c1)NC(=O)c1cc2ccccc2[nH]1` [M^pro 11b, reference compound], in test [1] (10 µM), the “inhibition rate” value is reported as greater than 98%. On the same count and under the same terms, the value for `Cc1cc(C(=O)N[C@@H](C)C(=O)N[C@H](C(=O)N[C@@H](CC(C)C)C(=O)N[C@H](/C=C/C(=O)OCc2ccccc2)C[C@@H]2CCNC2=O)C(C)C)no1` [M^pro N3, reference compound] was greater than 98%.

With `C=C(C)[C@@H]1C[C@H](O)C(C)=C[C@H]1c1c(O)cc(CCCCC)cc1O` [6α-OH-CBD, 6α-hydroxy cannabidiol], the inhibition at 10 µM in test [1] is 14.7%. Same read-out and setting: the value for `CCCCCc1cc(O)c2c(c1)OC(C)(CCC=C(C)C)C=C2` (centres unmarked) [CBC, cannabichromene] was 42.1%. With `C=C(C)[C@@H]1CCC(C)=C[C@H]1c1c(O)cc(CCCCC)cc1O` [CBD, cannabidiol, reference compound], in test [1], the inhibition at 50 µM amounted to 13.2%, the inhibition at 250 µM came out at 23% and the inhibition at 10 µM came out at 8.74%. With `CCCCCc1cc(O)c(C/C=C(\C)CCC=C(C)C)c(O)c1` [CBG, cannabigerol], the inhibition at 10 µM in test [1] is 25.4%. Regarding `C=C(C)[C@@H]1CCC(C)=C[C@H]1c1c(O)cc(CCCCC)c(C(=O)O)c1O` [CBDA, cannabidiolic acid], the “effect on pseudovirus infection (in words)” value in test [2] was “block the infection”. For the same compound, the inhibition at 2 µM in test [1] (2 μM) was 11.9%. In test [1], the inhibition at 50 µM worked out at 84.8%, the inhibition at 250 µM is 101% and the inhibition at 10 µM turned out to be 29.4%. Take `CCCCCc1cc2c3c(c1)OC(C)(C)C1CCC(C)(CC31)O2` (centres unmarked) [CBT, cannabicitran]: the inhibition at 10 µM in test [1] was less than 10%.

(Values after paper PMC9502466, “Identification of SARS-CoV-2 Main Protease Inhibitors from a Library of Minor Cannabinoids by Biochemical Inhibition Assay and Surface Plasmon Resonance Characterized Binding Affinity” (Molecules, 2022).)
